From patent publication US10098900B2, “Pharmaceutical compositions and their use for treatment of cancer and autoimmune diseases” (ZHEJIANG DTRM BIOPHARMA CO. LTD., priority 2015, dated 2018)

Key:
DoHH-2 cell line = assay: Inhibition assay of tumor cell activity (cell viability), DoHH-2; format: cell-based; details: Homo sapiens, individual compound, read-out: Inh % on DoHH-2 cell line (AVG)
Description: Inhibition Assay of Tumor Cell Activity:
Tumor cells (TMD-8, DoHH2 and WSU-DLCL2) were transferred and attached to 96-well plates. After one night, blank buffer and selected concentrations (0.01 nM-100 μM) of the test compound solution were added. After 48 hours incubation, CellTiter-Go was added to lyse the cells. Recording luminescent signal and calculate the percent inhibition of cell viability

[1] = tested on: DoHH-2 lymphoma xenograft; assay: Inhibition of tumor growth in vivo, DoHH-2 lymphoma xenograft SCID mouse model; details: BID, 21 days
Description: (§1) Inhibition Study of Tumor Growth In Vivo:
(§2) SCID mice or nude mice (weighing about 18 g at the beginning of the experiment) were randomly divided into groups by the software in order to achieve close average weights between groups and control the bias within the allowable range. The mice were injected BTK cell lines (TMD-8, WSU-DLCL2 and DoHH-2) for tumor formation. Inhibitors were administered orally once or twice a day, a total of 14 days, 21 days or 28 days. Body weights and tumor volume were recorded.
(§3) Xenograft Tumor Models Inoculated with TMD-8, or DoHH2, or WSU-DLCL2 Tumor Cell Lines:
(§4) TMD-8 is a sensitive human diffuse large B-cell lymphoma cell line, and DoHH2 is a more difficult to treat human follicular lymphoma cell line, while WSU-DLCL2 is a multi-drug resistant (MDR) human non-Hodgkin's lymphoma cell line. Drug combination therapies provide better efficacies in all three tumor models than single targeted agent alone.
(§5) The TMD-8, DoHH2, WSU-DLCL2 tumor cells were maintained in vitro as a suspension culture in RPMI-1640 medium supplemented with 10% heat inactivated fetal calf serum at 37° C. in an atmosphere of 5% CO2 in air. The tumor cells were routinely subcultured twice weekly. The cells growing in an exponential growth phase were harvested and counted for tumor inoculation. Each mouse was inoculated subcutaneously at the right flank with the tumor cells (10×10^6) in 0.2 ml of PBS with Matrigel (1:1) for tumor development. The treatments were started after the average tumor size reached approximately 100-200 mm^3. Each group consisted of 6-10 tumor-bearing mice. The testing article (vehicle, compound or combination) was orally administrated to the mice according to the predetermined doses for 14-days or 21-days. Animal body weight and tumor volume were measured every 2- or 3-days throughout the treatment.

[2] = 28-day toxicity/toxicokinetic (TK) study in rats
Text: Toxicity and toxicokinetic (TK) studies of the compounds can be performed by well known methods.

TMD-8 lymphoma xenograft = assay: Inhibition of tumor growth in vivo, TMD-8 lymphoma xenograft SCID mouse model; details: TMD-8, Oral, BID
Description: as §1, §2, §3, §4, §5

## C=CC(=O)N1CC[C@@H](n2nc(-c3ccc(Oc4c(F)c(F)cc(F)c4F)cc3F)c3c(N)ncnc32)C1 [Compound 3, 1-((R)-3-(4-amino-3-(2-fluoro-4-(2,3,5,6-tetrafluorophenoxy)phenyl)-1H-pyrazolo[3,4-d]pyrimidin-1-yl)pyrrolidin-1-yl)prop-2-en-1-one]
DoHH-2 cell line; 0.01 uM
  inhibition at 0.01 µM: 15.6%
DoHH-2 cell line; 0.1 uM
  inhibition at 0.1 µM: 34.8%
DoHH-2 cell line; 1 uM
  inhibition at 1 µM: 49.9%
[1]; FIG. 6, Oral, 5 mg/kg
  Antitumor effect (%): 28.8%
[1]; FIG. 6, Oral, 10 mg/kg
  Antitumor effect (%): 20.1%
[1]; FIG. 6, Oral, 30 mg/kg
  Antitumor effect (%): 35.6%
[1]; FIG. 7, Oral, 5 mg/kg
  Antitumor effect (%): 15.9%
[2]; 28-day rat and dog studies
  difference in drug exposure between Day 1 and Day 28: no significant difference
  difference in drug exposure between male and female: no significant difference
[2]; rats
  AUC compared with ibrutinib: significantly higher
TMD-8 lymphoma xenograft; FIG. 2, 14 days, 10 mg/kg
  Antitumor effect (%): 63%
TMD-8 lymphoma xenograft; FIG. 2, 14 days, 30 mg/kg
  Antitumor effect (%): 89%
TMD-8 lymphoma xenograft; FIG. 3, 21 days, 5 mg/kg
  Antitumor effect (%): 90%
TMD-8 lymphoma xenograft; FIG. 3, 21 days, 10 mg/kg
  Antitumor effect (%): 96%
TMD-8 lymphoma xenograft; FIG. 4, 21 days, 10 mg/kg
  Antitumor effect (%): 77%
TMD-8 lymphoma xenograft; FIG. 12, 14 days, 5 mg/kg
  Antitumor effect (%): 75%
